Measurements taken from ChEMBL document CHEMBL2074516, “cDNA structure, genomic organization, and promoter analysis of the mouse intestinal peptide transporter PEPT1” (Biochim Biophys Acta, 2000).
Where a SMILES comes first, the peptide text is derived from it. [ ]: non-standard residue; d: D form. Sar = CNCC(=O)O

What was measured:
[1] = target: T1, Solute carrier family 15 member 1 (Mus musculus) (UniProt Q9JIP7); assay: TP_TRANSPORTER: uptake in Xenopus laevis oocytes; assay type: functional, cell-based; conditions: Oocyte
T1 sequence (whole entry): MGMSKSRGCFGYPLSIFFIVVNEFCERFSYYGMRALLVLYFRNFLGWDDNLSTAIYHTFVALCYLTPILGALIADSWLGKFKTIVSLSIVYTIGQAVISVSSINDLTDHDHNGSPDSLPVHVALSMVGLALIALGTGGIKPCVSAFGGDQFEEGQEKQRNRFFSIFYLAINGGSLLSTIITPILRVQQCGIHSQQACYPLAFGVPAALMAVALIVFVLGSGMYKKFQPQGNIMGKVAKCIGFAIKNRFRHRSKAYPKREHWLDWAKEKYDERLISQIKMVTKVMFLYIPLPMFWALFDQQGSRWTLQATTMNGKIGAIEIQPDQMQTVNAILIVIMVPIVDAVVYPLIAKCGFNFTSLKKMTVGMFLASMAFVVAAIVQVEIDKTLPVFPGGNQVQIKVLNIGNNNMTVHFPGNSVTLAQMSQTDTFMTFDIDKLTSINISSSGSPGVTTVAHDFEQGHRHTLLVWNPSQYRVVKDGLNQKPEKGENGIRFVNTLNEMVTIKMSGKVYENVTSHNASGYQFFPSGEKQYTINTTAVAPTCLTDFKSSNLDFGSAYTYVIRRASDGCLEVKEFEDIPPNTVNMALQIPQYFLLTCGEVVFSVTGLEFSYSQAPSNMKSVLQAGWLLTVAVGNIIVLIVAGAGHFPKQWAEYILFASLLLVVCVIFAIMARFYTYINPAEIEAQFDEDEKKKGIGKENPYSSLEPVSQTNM

[2] = target: T1, Solute carrier family 15 member 1 (Mus musculus); assay: TP_TRANSPORTER: uptake in PEPT1-expressing HRPE cells; assay type: functional, cell-based

Activity [1]: substrate [+]
Activity [2]: substrate [+]
Compound: CN(CC(=O)O)C(=O)CN (H-Gly-[Sar]-OH)
